Five compounds from patent US20010039258A1, “Active agent transport systems” (Emisphere Technologies, Inc., priority 1990, published 2001) can be followed below.

For data set [1], the target named is rhGH (Homo sapiens, UniProt P01241). The experiment in a line: Isothermal titration calorimetry of rhGH with perturbants. The data set is classed as binding. The conditions noted are these: 30° C. As to the method:
The ability of rhGh to complex with various perturbants was assessed by ITC using a Microcal Omega titrator, usually equilibrated at 30° C. The sample cell of the calorimeter was filled with degassed rhGH (usually at 0.25 mM) prepared in 50 mM phosphate buffer, pH 7.5 or 4.0. The perturbant (cyclohexanoyl chloride modified L-tyrosin (a), salicyloyl modified L-phenylalanine (b), or phenylsulfonyl-para-amino benzoic acid (c)) was then placed in the dropping syringe at 1 mM (for pH 7.5) and 2.5 mM, (for pH 4.0). Twenty to twenty-five 10 μl injections were made into rapidly mixing (400 rpm) solution with 2 minute intervals between injections.
Initial concentration of perturbant placed in the calorimeter sample cell assumed a formula weight of 200 for each perturbant. The pH of each solution was checked after dissolution, but no adjustments of the pH were required. All experiments were performed at 30° C. Initial concentration of rhGh placed in the dropping syringe assumed a molecular weight of 20,000 for rhGh. The pH of each solution was checked after dissolution, but no adjustment of the pH was required.
The heats of reaction were determined by integration of the observed peaks. To correct for heat of mixing and dilution, a control experiment was also performed under identical conditions where aliquots of the test perturbant or rhGh were added to buffer solution only.
For orientation: ITC needs no label: the signal is the heat of the interaction.

Data set [2] can be described thus: DSC of heparin, effect of ionic strength. The data set is classed as physicochemical. The settings on record: pH 7.0. As to the method:
(§1) Scanning calorimetry was performed using 5 mg 0.83 mM porcine insulin (MW 6,000) per mL in 50 mM phosphate buffer, pH 7.5. All thermograms were performed on a Microcal MC-2 scanning calorimeter equipped with the DA2 data acquisition system operated in the upscale mode at 1° C./min (up to 90° C.), and data points were collected at 20 second intervals. All scans were initiated at least 20 degrees below the observed transitions for the active agent. All thermograms were corrected for baseline subtraction and normalized for the concentration of macromolecule. According to the methods of the Johns Hopkins Biocalorimetry Center, See, for example, Ramsay et al. Biochemistry (1990) 29:8677-8693; Schon et al. Biochemistry (1989) 28:5019-5024 (1990) 29: 781-788. […]
(§2) Thermograms were corrected by subtraction of a heparin 0.05M NaCl-phosphate buffer blank, but an individual blank was not used for each NaCl concentration.

Data set [3] is described as follows: DSC of heparin, effect of pH. The data set is classed as physicochemical. As to the method:
as §1, with “All” for “Scanning calorimetry was performed using 5 mg 0.83 mM porcine insulin (MW 6,000) per mL in 50 mM phosphate buffer, pH 7.5. All”
as §2

Data set [4] in a line: DSC of heparin, effect of guanidine hydrochloride. It counts as physicochemical. As to the method: Scanning calorimetry was performed using 5 mg 0.83 mM porcine insulin (MW 6,000) per mL in 50 mM phosphate buffer, pH 7.5. All thermograms were performed on a Microcal MC-2 scanning calorimeter equipped with the DA2 data acquisition system operated in the upscale mode at 1° C./min (up to 90° C.), and data points were collected at 20 second intervals. All scans were initiated at least 20 degrees below the observed transitions for the active agent. All thermograms were corrected for baseline subtraction and normalized for the concentration of macromolecule. According to the methods of the Johns Hopkins Biocalorimetry Center, See, for example, Ramsay et al. Biochemistry (1990) 29:8677-8693; Schon et al. Biochemistry (1989) 28:5019-5024 (1990) 29: 781-788.
DSC thermograms of heparin at pH 5.0 were conducted according to the method of Example 9 using pH, GuHCl, and ionic strength as perturbants.
as §2

Data set [5] concerns the target T1, α-interferon (Homo sapiens, UniProt P01563).
T1 construct: purchased Schering Plough Corp
Kind of data set: Perturbant binding DSC with α-interferon. The conditions noted are these: α-interferon 0.64 mg/ml, pH 7.2. The method, then: Perturbant binding DSC was conducted using 20 mM NaPhosphate buffer at pH 7.2. Dry perturbant was weighed out to make perturbant stock solutions. α-interferon stock was diluted in the buffer. α-interferon solution was not dialyzed prior to experiments for the purpose of having the same active concentration for the whole set.
DSC thermograms were generated with α-interferon at a concentration of 0.64 mg/ml and a perturbant (phenylsulfonyl-para-aminobenzoic acid purified to >98% (as determined by reverse phase chromatography prior to generation of the spectra)) at perturbant concentrations of 5, 10, 25 and 100 mg/ml. DSC was conducted on a DASM-4 differential scanning calorimeter interfaced to an IBM PC for automatic collection of the data. The scanning rate was 60° C./h.
The method of Example 19 was followed substituting α-interferon without perturbant. Results are illustrated in Table 9 below and FIG. 10. […]

Data set [6] deals with T1, α-interferon. Kind of data set: Isothermal titration calorimetry of perturbant complexing with α-interferon. The data set is classed as binding. The settings on record: 25° C.; for result of complexing with α-interferon at pH 3: 20 mM NaAc; for n (1), # of complexed perturbant molecules: curve fitting, multiple independent sites. The method, then:
Isothermal titration calorimetry of perturbant complexing with α-interferon was performed at 25° C. at two different pH's. The buffers used were 20 mM NaPhosphate for pH 7.2 and 20 mM NaAc for pH 3.0. α-interferon solution was dialyzed before the experiment to reach the appropriate pH. Dry perturbants were weighed and diluted in dialysate.
ITC was conducted on a MicroCal OMEGA titration calorimeter (MicroCal Inc.—Northampton, Mass.). Data points were collected every 2 seconds, without subsequent filtering. α-interferon solution placed in 1.3625 mL cell was titrated using a 250 μL syringe filled with concentrated perturbant solution. A certain amount of titrant was injected every 3-5 minutes for up to 55 injections.
A reference experiment to correct for the heat of mixing of two solutions, was performed identically except that the reaction cell was filled with buffer without active agent.
Analysis of the data was performed using the software developed at the Johns Hopkins University Biocalorimetry Center.
The titration at pH 7.2 included 53 injections of 2 μL of the perturbant of Example 30 (50 mg/mL=191.6 mM (MW 261)) and α-interferon (1.3 mg/mL=0.067 mM (MW 19400)).
The titration at pH 7.2 included two runs of […] each of 5 μL of perturbant (50 mg/mL=181 mM (FW 277)) and α-interferon (2.31 mg/mL=0.119 mM, (MW 19400)).
ITC was performed according to the method of Example 24 with 40 injections of 5 μL of the perturbant benzoyl para-amino phenylbutyric acid (7.5 mg/mL=24.59 mM, (FW 305)) and α-interferon (2.5 mg/mL=0.129 mM, (MW 19400)).

Where two headings read alike, the source gives them in different places.

Sequence of rhGH (P01241 27-217): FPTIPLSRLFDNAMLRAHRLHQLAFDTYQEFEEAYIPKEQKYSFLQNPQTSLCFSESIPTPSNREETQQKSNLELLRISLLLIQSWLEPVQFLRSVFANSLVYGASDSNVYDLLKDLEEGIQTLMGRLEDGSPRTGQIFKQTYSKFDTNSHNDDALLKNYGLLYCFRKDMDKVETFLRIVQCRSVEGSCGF
T1 sequence (P01563 24-188): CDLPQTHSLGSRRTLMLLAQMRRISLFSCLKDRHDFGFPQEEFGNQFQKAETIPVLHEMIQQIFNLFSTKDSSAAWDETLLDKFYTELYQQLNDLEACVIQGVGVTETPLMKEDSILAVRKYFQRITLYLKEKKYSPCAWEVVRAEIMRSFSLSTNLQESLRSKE

In data set [1] (pH 4.0), `O=C(N[C@@H](Cc1ccccc1)C(=O)O)c1ccccc1O` [B, salicyloyl modified L-phenylalanine] had a Kd of 0.00161 µM, a ΔH of -35.6 kcal/mol and a ΔS of −90.0 eu. For the same compound, in data set [1] (pH 7.5), the Kd was 1.11 µM, the ΔH entry is “+2.1 kcal/mol” and the ΔS result is given as “+35.0 eu”.
For the compound Heparin, the ΔH is 72.9 kcal/mol in data set [2] (0.0M NaCl); “not present” in data set [2] (0.25M NaCl); “not present” in data set [2] (0.50M NaCl); “not present” in data set [2] (0.75M NaCl); 232.1 kcal/mol in data set [3] (pH 6.0); 213.9 kcal/mol in data set [3] (pH 6.5, (a) domain). Moreover, the ΔH in data set [3] (pH 6.5, (b) domain) was determined as 751.9 kcal/mol; in data set [3] (pH 7.0, (a) domain) it was 187.1 kcal/mol; in data set [3] (pH 7.0, (b) domain), 136.4 kcal/mol; in data set [3] (pH 7.5) it was 499.4 kcal/mol; in data set [4] (0.5M GuHCl), 287.3 kcal/mol; in data set [4] (1.0M GuHCl), 415.0 kcal/mol. The ΔH in data set [4] (1.5M GuHCl) is reported as 1716.5 kcal/mol; in data set [4] (2.0M GuHCl), 2533.7 kcal/mol; in data set [4] (no GuHCl), 499.4 kcal/mol. Besides, the ΔHvH in data set [2] (0.0M NaCl) was determined as 136.4 kcal/mol; in data set [3] (pH 6.0), 13.8 kcal/mol; in data set [3] (pH 6.5, printed in line (b)), 56.8 kcal/mol; in data set [3] (pH 7.0, printed in line (b)), 27.6 kcal/mol; in data set [3] (pH 7.5), 83.8 kcal/mol; in data set [4] (0.5M GuHCl), 170.9 kcal/mol. Further, the ΔHvH in data set [4] (1.0M GuHCl) turned out to be 97.1 kcal/mol; in data set [4] (1.5M GuHCl), 24.3 kcal/mol; in data set [4] (2.0M GuHCl), 19.2 kcal/mol; in data set [4] (no GuHCl) it was 83.8 kcal/mol. Moreover, the Tm (Cp, max) in data set [2] (0.0M NaCl, 20 μg/ml) is 47.1 °C; in data set [2] (0.25M NaCl), 46.1 °C; in data set [2] (0.50M NaCl), 41.6 °C; in data set [2] (0.75M NaCl) it was 27.5 °C; in data set [2] (1.0M NaCl) it was “no transition observed”; in data set [3] (pH 6.0, 20 μg/ml in 50 mM phosphate), 62.5 °C. Also, the Tm (Cp, max) was found to be 62.7 °C in data set [3] (pH 6.5, (a) domain); 71.8 °C in data set [3] (pH 6.5, (b) domain); 47.1 °C in data set [3] (pH 7.0, (a) domain); 72.9 °C in data set [3] (pH 7.0, (b) domain); 66.2 °C in data set [3] (pH 7.5); 50.5 °C in data set [4] (0.5M GuHCl). The Tm (Cp, max) in data set [4] (1.0M GuHCl) stood at 60.5 °C; in data set [4] (no GuHCl, 50 mM phosphate) it was 67.2 °C.
As to `O=C(O)c1ccc(NS(=O)(=O)c2ccccc2)cc1` [perturbant of Example 19, phenylsulfonyl-para-aminobenzoic acid], in data set [1] (pH 4.0), the Kd came to 0.0267 µM, the ΔH is -1.2 kcal/mol and the ΔS is recorded as −30.0 eu. Besides, in data set [1] (pH 7.5), the Kd is 0.00111 µM, the ΔH entry is recorded as “+0.8 kcal/mol” and the ΔS result is on record as “+44.0 eu”. Further, in data set [5] (perturbant 5 mg/ml), the “Tm of α-interferon” value worked out at 64.37 °C and the “ΔH of α-interferon” value is 60.151 kcal/mol. Besides, in data set [5] (perturbant 10 mg/ml), the “Tm of α-interferon” value is 62.3 °C and the “ΔH of α-interferon” value came out at 53.161 kcal/mol. Moreover, in data set [5] (perturbant 25 mg/ml), the “Tm of α-interferon” value came out at 58.15 °C and the “ΔH of α-interferon” value stood at 35.393 kcal/mol. Besides, in data set [5] (perturbant 100 mg/ml), the “Tm of α-interferon” value is 46.18 °C and the “ΔH of α-interferon” value stood at 5.4393 kcal/mol. Also, the “result of complexing with α-interferon at pH 3” value in data set [6] was “precipitation of the complex out of the solution”. For the same compound, in data set [6] (pH 7.2), the “log 10 Ka (1), Ka=association constant” value is listed as 2.82; the “ΔH (1)” value is −114.587 cal/Mole perturbant; the “n (1), # of complexed perturbant molecules” value stood at 55.12.
With `O=C(NC(C(=O)O)c1ccccc1)C1CCCCC1` (stereo not drawn) [perturbant of Example 22, cyclohexanoyl phenylglycine], the “Tm of α-interferon” value in data set [5] (perturbant 5 mg/ml) was 63.00 °C; in data set [5] (perturbant 10 mg/ml) it was 59.49 °C; in data set [5] (perturbant 25 mg/ml), 52.79 °C. The “ΔH of α-interferon” value in data set [5] (perturbant 5 mg/ml) worked out at 42.299 kcal/mol; in data set [5] (perturbant 10 mg/ml), 43.058 kcal/mol; in data set [5] (perturbant 25 mg/ml), 27.237 kcal/mol; in data set [5] (perturbant 100 mg/ml), 0 kcal/mol. For the same compound, the “result of complexing with α-interferon at pH 3” value in data set [6] is recorded as “negative enthalpy”. For the same compound, the “ΔH (1)” value in data set [6] (pH 7.2) was determined as 58.5932 cal/Mole perturbant. In addition, the “n (1), # of complexed perturbant molecules” value in data set [6] (pH 7.2) came out at 121.0354. Further, the Kd in data set [6] (pH 7.2, read-out: binding constant (Kd)) was around 1000 µM; in data set [6] (pH 7.2, read-out: log 10 Ka (1), Ka=association constant (converted)), 2990 µM.
In data set [1] (pH 4.0), “cyclohexanoyl chloride modified L-tyrosine” gave a Kd of 78.1 µM, a ΔH of -1.5 kcal/mol and a ΔS of −5.6 eu. Further, in data set [1] (pH 7.5), the Kd was determined as 98.8 µM, the ΔH result is given as “+1.4 kcal/mol” and the ΔS result was “+23.5 eu”.
